Results as given in article PMC4352855 (Scientific Reports, 2015).
Entries after “also recorded” stand apart in the source; their conditions may differ.

How the values were obtained:
Y427A-LLO = molecular target: T1, Y427A-LLO (Listeria monocytogenes serovar 1/2a, UniProt P13128, Y427A); format: biochemical; details: mutant Y427A compared with LLO, Fig. 2b
T1 construct: His6 (C); made in house; host or cells: Escherichia coli BL21(DE3)

V428A-LLO = molecular target: T2, V428A-LLO (Listeria monocytogenes serovar 1/2a, UniProt P13128, V428A); format: biochemical; details: mutant V428A compared with LLO, Fig. 2b
T2 construct: His6 (C); made in house; host or cells: Escherichia coli BL21(DE3)

S466A-LLO = molecular target: T3, S466A-LLO (Listeria monocytogenes serovar 1/2a, UniProt P13128, S466A); format: biochemical; details: mutant S466A compared with LLO, Fig. 2b
T3 construct: His6 (C); made in house; host or cells: Escherichia coli BL21(DE3)

S467A-LLO = molecular target: T4, S467A-LLO (Listeria monocytogenes serovar 1/2a, UniProt P13128, S467A); format: biochemical; details: mutant S467A compared with LLO, Fig. 2b
T4 construct: His6 (C); made in house; host or cells: Escherichia coli BL21(DE3)

L. monocytogenes = details: cited from earlier work
LLO = molecular target: T5, LLO (Listeria monocytogenes serovar 1/2a, UniProt P13128); details: cited from earlier work
T5 construct: His6 (C); made in house; host or cells: Escherichia coli BL21(DE3)

O=c1c(O)c(-c2cc(O)c(O)c(O)c2)oc2cc(O)cc(O)c12 [Myr, myricetin]
sensitivity to Myr in the inhibition of hemolytic activity (Y427A-LLO): less sensitive | sensitivity to Myr in the inhibition of hemolytic activity (V428A-LLO): less sensitive | sensitivity to Myr in the inhibition of hemolytic activity (S466A-LLO): less sensitive | sensitivity to Myr in the inhibition of hemolytic activity (S467A-LLO): less sensitive

O=c1c(O)c(-c2ccc(O)c(O)c2)oc2cc(O)ccc12 [fisetin]
antimicrobial activity (L. monocytogenes): without antimicrobial activity; also recorded: without anti-bacterial activity | effect on hemolytic activity of LLO (LLO): inhibit its hemolytic activity; also recorded: attenuating the hemolytic activity of LLO
